Columns and labels:
CD62L shedding [1] = assay: Soluble CD62L ELISA, anti-CD3/PHA stimulated PBMC or CD4 T cells; assay type: cell-based, human
Protocol: PBMC from de-identified healthy donors were obtained with informed consent from the Department of Transfusion Medicine, National Institutes of Health under Biological reagent Registry RD-14-IX-12 approved by NIH biological safety board. […] IL-2 was added at a final concentration of 20 U/mL. CD3 antibody okt3 was used at ~0.2 μg/mL final concentration. […] Supernatants were collected and assessed using either the CD62L or TNF-α Duo Set ELISA kit according to manufacturer’s instructions (R&D Systems, Inc.). The viability of cells treated with compounds was assessed by acridine orange / propidiom iodide (AO/PI Logosbio catalog F23001) staining using Luna-FL cell counter following the manufacture’s instruction.^2

recombinant ADAM17 = biological target: T1, recombinant ADAM17 (Homo sapiens, UniProt P78536); assay: Kinetic cleavage of fluorogenic TNF-α peptide ES003 by recombinant ADAM17; assay type: biochemical; details: 2 μM compound
T1 construct: purchased R&D systems, Inc
T1 sequence (P78536 215-824): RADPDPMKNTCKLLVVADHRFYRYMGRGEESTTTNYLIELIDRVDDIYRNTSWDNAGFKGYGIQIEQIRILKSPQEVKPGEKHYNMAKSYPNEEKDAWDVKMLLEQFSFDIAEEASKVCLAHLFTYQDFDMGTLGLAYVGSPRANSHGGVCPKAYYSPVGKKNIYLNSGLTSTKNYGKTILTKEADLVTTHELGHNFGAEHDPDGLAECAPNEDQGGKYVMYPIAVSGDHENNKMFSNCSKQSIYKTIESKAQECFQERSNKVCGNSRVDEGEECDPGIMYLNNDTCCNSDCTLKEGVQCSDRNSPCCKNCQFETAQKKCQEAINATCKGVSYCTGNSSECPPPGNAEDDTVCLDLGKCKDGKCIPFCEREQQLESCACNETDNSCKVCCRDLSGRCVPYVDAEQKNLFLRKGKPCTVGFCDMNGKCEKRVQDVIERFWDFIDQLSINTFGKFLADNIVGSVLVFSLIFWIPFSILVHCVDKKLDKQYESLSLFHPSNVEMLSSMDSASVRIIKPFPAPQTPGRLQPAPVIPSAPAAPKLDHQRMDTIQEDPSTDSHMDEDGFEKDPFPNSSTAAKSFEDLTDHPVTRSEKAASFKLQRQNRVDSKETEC
Description: (§1) A fluorescence based enzymatic assay was used to measure the cleavage of fluorogenic TNF-α and L-selectin (CD62L) peptides by either recombinant ADAMs or PBMC from healthy donors. The fluorogenic substrate, synthesized by Biomatik^3, was a Dabcyl (4-(4-dimethylaminophenylazo)benzoyl)- and Edans (5-[(2-aminoethyl)amino]naphthalene-1-sulfonic acid)- conjugated 12 amino acid peptide: Dabcyl-[…]-Edans that corresponds to the extracellular membrane proximal region of CD62L. […] The cleavage was measured in a kinetic assay every 3 min for 4 h in black 96-well plates using a Synergy_h1 fluorescent plate reader (BioTek) with 340 nm excitation and 490 nm emission wavelengths. […] PBMC were stimulated with anti-CD3 antibody for 2–4 days as described above.
(§2) 96-well plate with data recorded every 3 minutes for 4 hours using a Synergy_h1 fluorescent plate reader. Each enzymatic reaction contained 50 -200 ng
(§3) Figure 2B and 2C bar diagrams are generated using the
(§4) data points at 4 hour time point of the enzymatic cleavages.

recombinant ADAM10 [2] = biological target: T2, recombinant ADAM10 (Homo sapiens, UniProt O14672); assay: Kinetic cleavage of fluorogenic TNF-α peptide ES003 by recombinant ADAM10; assay type: biochemical; details: 2 μM compound
T2 construct: purchased R&D systems, Inc
T2 sequence (O14672 214-748): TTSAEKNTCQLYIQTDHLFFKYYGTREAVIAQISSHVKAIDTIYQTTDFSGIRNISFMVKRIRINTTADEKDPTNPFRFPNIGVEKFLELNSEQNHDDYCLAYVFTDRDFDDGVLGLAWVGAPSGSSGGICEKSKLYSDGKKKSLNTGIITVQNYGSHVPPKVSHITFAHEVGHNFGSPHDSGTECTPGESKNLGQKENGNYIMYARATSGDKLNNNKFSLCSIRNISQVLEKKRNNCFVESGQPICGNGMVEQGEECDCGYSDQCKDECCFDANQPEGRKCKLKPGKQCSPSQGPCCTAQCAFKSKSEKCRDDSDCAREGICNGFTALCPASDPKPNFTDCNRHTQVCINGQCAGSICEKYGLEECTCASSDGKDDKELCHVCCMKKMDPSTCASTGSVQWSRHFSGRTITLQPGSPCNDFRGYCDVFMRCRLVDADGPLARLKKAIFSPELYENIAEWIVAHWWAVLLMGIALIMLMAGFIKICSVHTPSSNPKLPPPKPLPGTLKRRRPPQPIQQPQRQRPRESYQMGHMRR
Description: as §1, §2, §3, §4

recombinant ADAM10 [3] = biological target: T2, recombinant ADAM10; assay: Cleavage of fluorogenic CD62L peptide by recombinant ADAM10; assay type: biochemical; details: 2 μM compound
Description: A fluorescence based enzymatic assay was used to measure the cleavage of fluorogenic TNF-α and L-selectin (CD62L) peptides by either recombinant ADAMs or PBMC from healthy donors. The fluorogenic substrate, synthesized by Biomatik^3, was a Dabcyl (4-(4-dimethylaminophenylazo)benzoyl)- and Edans (5-[(2-aminoethyl)amino]naphthalene-1-sulfonic acid)- conjugated 12 amino acid peptide: Dabcyl-[…]-Edans that corresponds to the extracellular membrane proximal region of CD62L. The fluorescence of the Edans group is quenched by the Dabcyl group in the intact substrate and the cleavage of the CD62L substrate peptide results in a fluorescence emission at 490 nm. The cleavage of fluorogenic TNF-α peptide (ES003, R &D systems, Inc) was detected at emission of 405 nm. The cleavage was measured in a kinetic assay every 3 min for 4 h in black 96-well plates using a Synergy_h1 fluorescent plate reader (BioTek) with 340 nm excitation and 490 nm emission wavelengths. For cleavage using recombinant ADAMs, each enzymatic reaction contained 50–200 ng of recombinant ADAM17 or 10 (R&D systems, Inc) mixed with 5–10 μM fluorogenic TNFα peptide ES003 (R&D systems, Inc) or CD62L peptide with or without indicated inhibitors in 100 μL assay buffer of 25 mM Tris at pH 9.0, 2.5 μM ZnCl2, and 0.005% Brij-35 (w/v). For cell-based cleavage of the fluorescent CD62L-peptide substrate, 300,000 PBMC at 2×10^6/ml density were mixed with 10 μM fluorescent CD62L-peptide and various inhibitors in a black 96-well plate in 150 μL culture media (RPMI 1640, 10% FBS, 1% penicillin streptomycin). PBMC were stimulated with anti-CD3 antibody for 2–4 days as described above.
Supplemental Figure 3. Inhibition of ADAM10 enzymatic activity by 14mb. A) chemical structure of 3-Cl-phenylpyrrolidine tartrate diamide analogs 14m and 15. B)Inhibition of recombinant ADAM10 cleavage of a fluorogenic CD62L peptide substrate in the presence of titrating concentrations of 14mb. The concentration-dependent enzymatic activities are fitted with non-linear regression of normalized inhibition response model. C). Inhibition of ADAM10 enzymatic cleavage of fluorogenic CD62L peptide by various […]

HIV-1BAL = HIV-1BAL infection of CD8-depleted PBMC, FACS (intracellular p24, CD4, CD62L); assay type: cell-based
Description: The use of healthy human peripheral blood mononuclear cells (PBMC) is approved by the Department of Transfusion Medicine at the Clinical Center of National Institutes of Health. The use of PBMC from HIV-1 infected individuals for the study was approved under protocol #02-I-0202 by the Institutional Review Board (IRB) of National Institutes of Health with written informed consent from all donors. Peripheral blood mononuclear cells (PBMCs) from anonymous healthy donors were isolated by Ficoll-Paque gradient, and cultured in RPMI 1640 supplemented with 10% FBS, 1%Penicillin/streptomycin, 1% HEPES buffer and 20 U/mL IL-2 (culture media); and stimulated with 0.2 μg/mL anti-CD3 antibody (okt3) for 2 days. CD8^+ T cells were depleted prior to infection using the Stemcell CD8 positive selection kit according to manufacturer’s instructions. CD8-depleted PBMCs were plated at 2×10^6 cells/ml in 48-well plates in 1 mL culture media with various inhibitors for 60 min prior to the addition of ~80 TCID50 HIV-1BAL or HIV-1LAI. Inhibitors were replenished during media change every 3 days. The infections were proceeded with or without inhibitors for 6 days or otherwise specified number of days and then analyzed by FACS staining using fluorescent labeled CD4-BV510, CD62L-APC and CD3-PEC7 antibodies (BD Biosciences). Cells were then washed and permeabilized with CytoFix/CytoPerm (BD Biosciences) solution before intracellular staining for HIV p24 antigen using FITC conjugated anti-p24 antibody clone KC57 (Beckman Coulter, catalog 6604665). All assays were performed with cell viabilities >80%. Replication competent HIV-1 viruses were obtained from the NIH AIDS Reagent Program^4, and expanded by infecting activated CD8-depleted PBMCs, and TCID50 was determined by p24 ELISA.

[4] = biological target: T3, recombinant HIV-1 protease (Human immunodeficiency virus type 1 group M subtype B, UniProt P04585); assay: HIV-1 protease fluorogenic substrate cleavage; assay type: biochemical; details: 100nM saquinavir or nelfinavir; MMP inhibitors up to 10uM
T3 construct: recombinant HIV-1 protease; purchased Sigma-Aldrich SRP2151
Protocol: HIV-1 protease enzymatic activity was assayed in black 96-well plates at room temperature using a Synergy_h1 fluorescent plate reader with 340 nm excitation and 490 nm emission wavelengths (BioTek). Each enzymatic reaction consisted of a mixture of 100 ng of recombinant HIV-1 protease (Sigma-Aldrich catalog SRP2151), 5 μM concentration of a fluorogenic substrate Arg-Glu(EDANS)-[…]DABCYL)-Arg (Sigma-aldrich catalog H6660), and various concentrations of inhibitor compounds in 100 μL of assay buffer (0.15 M sodium chloride, 1.0 mM EDTA, 1.0 mM DTT, 0.1 M sodium acetate, pH 5.0). The fluorescence of the cleavage reaction was continuously read at every 30 s for a total of 40 min.

CD62L shedding [5] = assay: Soluble CD62L ELISA, unstimulated PBMC; assay type: cell-based, human; details: 10 μM compound, non-stimulated cells, ELISA
Protocol: PBMC from de-identified healthy donors were obtained with informed consent from the Department of Transfusion Medicine, National Institutes of Health under Biological reagent Registry RD-14-IX-12 approved by NIH biological safety board. CD8-depleted PBMCs, either stimulated or non-stimulated with 10 μg/mL phytohaemagglutinin (PHA) or anti-CD3 antibody (with or without conjugated beads), were plated at 2×10^6 cells/ml in 48 well plates in RPMI 1640 + 10%FBS (R10) to a final volume of 1 mL in each well. IL-2 was added at a final concentration of 20 U/mL. CD3 antibody okt3 was used at ~0.2 μg/mL final concentration. […] Supernatants were collected and assessed using either the CD62L or TNF-α Duo Set ELISA kit according to manufacturer's instructions (R&D Systems, Inc.). The viability of cells treated with compounds was assessed by acridine orange / propidiom iodide (AO/PI Logosbio catalog F23001) staining using Luna-FL cell counter following the manufacture's instruction.^2 […] Supplemental Figure 1. CD62L shedding from unstimulated PBMC. A) Soluble CD62L in the supernatant of unstimulated PBMC was measured By ELISA (R&D systems, Inc) after 24 hour treatment in the presence of 10 μM of […]), aminopeptidase (AP) protease inhibitors, respectively, or their untreated controls. Statistics were calculated using unpaired parametric student t-test between individual treatment and DMSO control. […] B) Viability of PBMC treated with 10-500 μM of MMP inhibitors for 24hours. […] Untreated DMSO AEBSF 3,4-Dichloroisocouman Granzyme B Inhibitor II Granzyme B Inhibitor IV Aprotinin […] 3 4 CD62L shedding from unstimulated PBMC Soluble CD62L (ng/ml) Inhibitor Class […] GI254023X 10 GI254023X 100 […] GI254023X 1000 GW280264X 10 GW280264X 100 […] GW280264X 1000 Marimastat 10 Marimastat 100 Marimastat 250 […]

PBMC = PBMC viability (AO/PI staining); assay type: cell-based, human; details: for PBMC viability at 24hr post treatment: 10-500 μM of MMP inhibitors for 24hours
Protocol: PBMC from de-identified healthy donors were obtained with informed consent from the Department of Transfusion Medicine, National Institutes of Health under Biological reagent Registry RD-14-IX-12 approved by NIH biological safety board. CD8-depleted PBMCs, either stimulated or non-stimulated with 10 μg/mL phytohaemagglutinin (PHA) or anti-CD3 antibody (with or without conjugated beads), were plated at 2×10^6 cells/ml in 48 well plates in RPMI 1640 + 10%FBS (R10) to a final volume of 1 mL in each well. IL-2 was added at a final concentration of 20 U/mL. CD3 antibody okt3 was used at ~0.2 μg/mL final concentration. Compounds were prepared in appropriate solvents according to the manufacturer’s instructions, diluted to working concentrations using RPMI 1640 + 10%FBS (R10), and added to the cell cultures for 6–24 h for CD62L shedding, and 48 h for TNF-α release. Supernatants were collected and assessed using either the CD62L or TNF-α Duo Set ELISA kit according to manufacturer’s instructions (R&D Systems, Inc.). The viability of cells treated with compounds was assessed by acridine orange / propidiom iodide (AO/PI Logosbio catalog F23001) staining using Luna-FL cell counter following the manufacture’s instruction.^2

[6] = 10 μM compound, stimulated cells, ELISA

With `O=P([O-])([O-])C(Cl)(Cl)P(=O)(O)O.[Na+].[Na+]` [DMDP, Dichloromethylenediphosphonic acid disodium salt] the “Shedding inhibition Stimulated” value (CD62L shedding [1]; [6]) was “− (0% inhibition)”, the “inhibition of ADAM17 cleavage of ES003” value (recombinant ADAM17) was “inhibited neither ADAM10 nor 17 enzymatic activities” and the “inhibition of ADAM10 cleavage of ES003” value (recombinant ADAM10 [2]) was “inhibited neither ADAM10 nor 17 enzymatic activities”. For the same molecule, the “inhibition of ADAM10 cleavage of CD62L substrate peptide” value (recombinant ADAM10 [3]) was “not”, the “accumulation of infected CD4−/CD62L− T cells (loss of CD62L)” value (HIV-1BAL; HIV-1BAL infected cells) was “failed to prevent the loss of CD62L” and the “effect on HIV-1BAL infection (intracellular p24)” value (HIV-1BAL; day 7 post infection, compounds at 100 μM, GI254023X at 250 μM) was “failed to inhibit HIV-1BAL infections”. The “effect on HIV protease cleavage of fluorogenic substrate” value (shortened to “effect on HIV protease cleavage”) [4] was “none of the MMP inhibitors, including BB-94, prinomastat, GM6001 and DMDP, inhibited the activity of HIV protease”.
With `CC(C)(C)NC(=O)[C@@H]1C[C@@H]2CCCC[C@@H]2CN1C[C@@H](O)[C@H](Cc1ccccc1)NC(=O)[C@H](CC(N)=O)NC(=O)c1ccc2ccccc2n1` [saquinavir] the “effect on HIV protease cleavage” value [4] was “suppressed the substrate cleavage by HIV protease”.
For `CNC(=O)[C@@H](NC(=O)[C@H](CC(C)C)[C@H](O)C(=O)NO)C(C)(C)C` [Marimastat], the inhibition at 10 µM (CD62L shedding [1]; Homo sapiens, 10 μM compound, stimulated cells, ELISA) was over 50%, the inhibition at 10 µM (CD62L shedding [5]; Homo sapiens, PBMC, read-out: Shedding inhibition Non-stim.) was over 50% and the “PBMC viability at day 6 post infection with HIV-1 BAL” value (PBMC; 50uM) was “significant loss in cell viability”. The “PBMC viability at 24hr post treatment” value (PBMC) was “No significant decrease in the viability”.
`Cc1c(O)cccc1C(=O)N[C@@H](CSc1ccccc1)[C@H](O)CN1C[C@H]2CCCC[C@H]2C[C@H]1C(=O)NC(C)(C)C` [nelfinavir] was tested, and the “effect on CD62L shedding from stimulated PBMC” value (CD62L shedding [1]; titration of HAART compounds, concentration range tested) was “did not inhibit CD62L shedding”, the “p24 staining in HIV-1BAL infection of PBMC” value (HIV-1BAL; day 6, 0.5μM compounds) was “no significant staining” and the “effect on HIV protease cleavage” value [4] was “suppressed the substrate cleavage by HIV protease”. The “PBMC viability at day 3 post treatment” value (PBMC; 10uM) was “significant reduced cell viability”.
With GW280264X the “Shedding inhibition Stimulated” value (CD62L shedding [1]; [6]) was “+/− (<20)”, the “Shedding inhibition Non-stim.” value (CD62L shedding [5]) was “+/− (<20)” and the “PBMC viability at 24hr post treatment” value (PBMC) was “No significant decrease in the viability”.
